The source of these data is patent US20250177324A1, “A[…], AND PREPARATION METHOD THEREFOR AND USE THEREOF” (SHANGHAI ZHIGEN PHARMACEUTICAL & TECHNOLOGY CO. LTD., priority 2022, published 2025).

Each structure is given as a SMILES string. Where two headings read alike, the source gives them in different places.

Data set [1] deals with C57 mice. Nature of the data set: Forced swim test of oral administration in mice (antidepressant activity). The format is in vivo. The following applies: Mus musculus, po, reduction of immobility time vs blank group, single gavage 20 mg/kg. How it is done:
To investigate the effects of different compounds on depression-like behavior in C57 mice by single oral administration of 20 mg/kg for 1 h and 24 h followed by forced swimming experiment, respectively.
The experimental animals were 6-week-old C57 mice, male, C57 breed mice purchased from Shanghai Slaughter Laboratory Animal Co. Ltd, weighing 20.45±0.19 g. The animals arrived at the Animal Breeding Center of the Shanghai Institute of Pharmaceutical Sciences, Chinese Academy of Sciences (Animal Production License: SCXK9[Shanghai]2004-0002, Use License: SYXK [Shanghai]2003-0029) before the experiments and were acclimated to the animal facilities for more than 3 days, 6 animals/cage were feed. The feeding environment was room temperature 23±0.2° C. and 12/12 h day/night alternating light and dark. Prior to behavioral testing, animals were moved to the behavioral testing room 2 hours in advance to acclimatize them to the environment and reduce their nervousness.
Preparation of the test material: the test compounds were weighed and dissolved in 0.9% NaCl solution, mixed well, and prepared into 1 mg/ml and 2 mg/ml solution for use, respectively.
24 h prior to drug administration, mice were placed in a cylindrical tank to acclimatize to the water environment for 10 min. On the day of the behavioral test, the animals were administered the drug once, by gavage/intraperitoneal injection at 1 h and 24 h prior to the behavioral test, respectively (as shown in Table 1).
The antidepressant effect of the compounds was evaluated by their ability to cause a reduction in the immobility time of the animals in the forced swim test compared to the blank group.

Data set [2] in a line: Brain tissue distribution study in rats. It counts as in vivo. Particulars: SD rats, 10 mg/kg gavage. Here is the method: Healthy male SD rats, randomly grouped with 3 rats in each group, were given the test compounds by gavage.
(§1) Each test compound was dissolved in saline to form a certain concentration solution for administration.
Fasting but not abstaining from water for 12-14 hours on the day before administration, and food was given 4 h after administration.
Brain tissues were collected after the animals were bled, cleaned, and homogenized with 50% ice methanol 1:4 (m/v). The collection time points were 5 min, 10 min, 30 min, and 2 h after the administration of subjects; 30.0 μL of tissue samples were taken (the samples were taken from the refrigerator at −80° C. and vortexed for 30 s after natural dissolution at room temperature) into 1.5 mL centrifugal tubes, and 300.0 μL of the internal standard solution (30 ng/mL buspirone in acetonitrile) was added; the samples were vortexed for 60 s, and centrifuged for 3 min (the centrifugal force was 12,000 rpm). 75 μL of the supernatant was transferred to a 96-well plate containing an equal volume of water, shaken to mix well and then sampled for LC-MS/MS analysis, the sample volume is 10 μL.

A short description of data set [3]: In vivo pharmacokinetic experiments in beagle dogs. Particulars: beagle dog. Here is the method: Healthy male beagle dogs, randomly grouped with 3 dogs in each group, were given the test compound by gavage or intravenous injection.
as §1
Fasting but not abstaining from water for 12-14 hours on the day before administration, and food was given 4 h after administration; no fasting was done for the intravenous experiments.
Each animal was sampled with 0.6 mL of blood each time through the jugular vein and anticoagulated with EDTAK2. The collection time points were 5 min, 10 min, 15 min, 30 min, 1 h, 2 h, 4 h, 6 h, 8 h, and 24 h after administration of the subject in group PO; group IV: 2 min, 5 min, 15 min, 30 min, 1 h, 2 h, 4 h, 6 h, 24 h after administration of the subject. Blood samples were placed on ice after collection and centrifuged to separate plasma within 30 min (centrifugation conditions: 5000 rpm, 10 min, 4° C.). The samples were stored at −80° C. before analysis.

Data set [4] in a line: Solid-state chemical stability under different storage conditions (liquid chromatography). The format is physicochemical. Particulars: 40° C., 75% RH. How it is done: The HPLC conditions were as follows:
Configuration of test solution: appropriate amount of sample was dissolved and diluted with a diluent (0.03 mol/L phosphate buffer-acetonitrile (80:20)) to make 1 mg/mL solution.
Chromatographic conditions: according to the high performance liquid chromatography (Chinese Pharmacopoeia 2020 version of the four general 0512) test, using octadecyl-bonded silica gel (Agilent Eclipse Plus C18, 4.6 mm*250 mm, 5.0 μm, P/N for 959990-902 or a chromatographic column with equivalent performance) as a filler; 0.03 mol/L phosphate buffer (4.08 g of potassium dihydrogen phosphate was dissolved in 1000 ml of water and shaken well) was used as mobile phase A and acetonitrile as mobile phase B at a flow rate of 1 ml/min, the column temperature was 30° C., the detection wavelength was 220 nm, the injection volume was 10 ul, and the sample plate was controlled to 8° C. and running for 65 min. Gradient elution was performed according to the following table: […]
Configuration of test solution: appropriate amount of the product was dissolved and diluted with a diluent (0.1% phosphoric acid-acetonitrile (80:20)) to make 1 mg/mL solution.
Chromatographic conditions: according to the high performance liquid chromatography (Chinese Pharmacopoeia 2020 version of the four general 0512) test, using octadecyl bonded silica gel (Agilent Eclipse Plus C18, 4.6 mm*250 mm, 5.0 μm, P/N 959990-902 or a chromatographic column with equivalent performance) as a filler; 0.1% phosphate buffer (1 ml of phosphoric acid in 1000 ml of water and shake well) as mobile phase A, acetonitrile as mobile phase B, flow rate of 1 ml/min, column temperature of 30° C., detection wavelength of 220 nm, injection volume of 10 ul, running for 48 minutes. Gradient elution was performed according to the following table: […]

The test system of data set [5] is C57 mice. Nature of the data set: Forced swim test of oral administration in mice (antidepressant activity). The format is in vivo. Particulars: Mus musculus, reduction of immobility time vs blank group, abdominal injection 10 mg/kg.
Setting [6] is: test 1 h after dosing, read-out: 1 h inhibition (%).
The mark [7] stands for this setting: test 24 h after dosing, read-out: 24 h inhibition (%).

For the molecule `CN[C@@]1(c2ccc(C(F)(F)F)cc2)CCC[C@](C)(O)C1=O.Cl` [Compound 73, (2S,6R)-2-hydroxy-2-methyl-6-methylamino-6-(4-(trifluoromethyl)phenyl)cyclohexan-1-one hydrochloride], the inhibition in vivo at 20 mg/kg with C57 mice [1] (setting [6]) is 68.7 ± 0.6%. For the same molecule, the inhibition in vivo at 20 mg/kg in the data set on C57 mice [1] (setting [7]) turned out to be 39.4 ± 4.4%. In data set [2] (brain), the AUC0-t brain is 6172 ng·h/g and the Cmax brain stood at 5567 ng/g. Further, in data set [2] (male, rat, brain and plasma, po, read-out: brain/plasma ratio), the Kp is 3.4. Further, in data set [2] (male, rat, po, plasma), the AUC0-t was found to be 1820 ng·h/mL and the highest level (Cmax) was 1600 ng/mL. Also, in data set [3] (1 mg/kg i.v.), the AUC0-t turned out to be 941 ngh/mL and the “AUC0-∞” value is 970 ngh/mL. Also, in data set [3] (5 mg/kg P.O.), the AUC0-t came out at 2179 ngh/mL, the “AUC0-∞” value was 2224 ngh/mL and the F is 46.3%. In data set [3] (male, plasma, iv, 1 mg/kg i.v.), this molecule showed an MRT of 1.84 h, a clearance of 17.7 mL/min/kg and a half-life of 1.61 h. Moreover, in data set [3] (male, plasma, iv, 1 mg/kg i.v., read-out: Vss), the Vd came to 1.93 L/kg. In data set [3] (male, plasma, po, 5 mg/kg P.O.), the Cmax is 1020 ng/mL, the MRT was found to be 2.57 h, the time of peak concentration (Tmax) came to 0.42 h and the half-life is 2.33 h. In data set [4] (0 days, liquid chromatography), the “Stability of solid state compound, 0 Days (%)” value is on record as 99.94%. Besides, the “Stability of solid state compound, 5 Days (%)” value in data set [4] (5 days) stood at 99.90%. The “Stability of solid state compound, 10 Days (%)” value in data set [4] (10 days) was found to be 99.88%. In addition, the “Stability of solid state compound, 30 Days (%)” value in data set [4] (30 days) is listed as 99.89%.
As for `CN[C@]1(c2ccccc2Cl)CCCCC1=O` [S-ketamine], the inhibition in vivo at 10 mg/kg amounted to 20.7 ± 3.7% in the data set on C57 mice [5] (setting [6]) and 23.6 ± 1% in the data set on C57 mice [5] (setting [7]).

One may read the Cmax as the peak of the concentration-time curve. What is called MRT is a mean duration of stay, worked out from the concentration-time curve. As usually defined, the clearance is the rate of elimination divided by the concentration. Read a high clearance as efficient removal. As a reminder, the half-life is how long it takes for the measured level to halve. A higher half-life goes with slow loss. A word on the Tmax: it is the time from dosing to the highest level.
